Experimental data reported in EP4755881A1 (Wuhan Createrna Science and Technology Co., Ltd., priority 2023, dated 2025).
Like-named read-outs stand apart in the source and are kept apart here. Values belong to the compound of their own block, whether it stands above or below them.

Legend:
LPAR1 receptor = target: T1, LPAR1 receptor (Homo sapiens, UniProt Q92633); assay: LPAR1 in vitro biological activity evaluation 2: HTRF cAMP kit (LANCE Ultra cAMP Kit) assay in CHO stable transfected cell line expressing the LPAR1 receptor; format: cell-based; settings: Table 2, read-out: LPAR1 inhibitory activity IC50
T1 construct: expressed in transfected cells
Procedure: The inhibitory effects of the compounds of the present disclosure on the LPAR1 receptor were determined using a Chinese hamster ovary (CHO) stable transfected cell line expressing the LPAR1 receptor, through the HTRF cAMP kit (LANCE® Ultra cAMP Kit).
The CHO cell line expressing the LPAR1 receptor was cultured in F-12 medium (Gibco, 117650054) containing 10% fetal bovine serum (FBS, Avantor, 76294-180) and 0.2 mg/mL hygromycin B (Solarbio, H8080-1g) at 37°C with 5% CO2. Cell passage, recovery, and cryopreservation were performed according to conventional methods. The stable transfected cell line was cultured to 80% confluence, digested with trypsin to collect cells, counted, and then seeded at 5 µL/well in a 384-well plate (500 cells/5 µL). The 1× Stimulation Buffer was prepared according to the instructions of the kit (LANCE® Ultra cAMP Kit). 1 µL of the test compound solution (diluted to 10× with 1× Stimulation Buffer) was added to the corresponding experimental wells, followed by centrifugation and incubation at 37°C for 10 minutes. […] 5 µL/well of Eu-cAMP (diluted with Detection buffer) was added to the corresponding experimental wells. 5 µL/well of ULight™-anti-cAMP antibody (diluted with Detection buffer) was added to the corresponding experimental wells, followed by centrifugation and incubation at room temperature for 1 hour. After the incubation was completed, the readings at 665 nm and 620 nm under 330 nm excitation were detected using the HTS high-throughput drug screening multifunctional microplate reader (BMG, PHERAstar FSX). The IC50 values were calculated by fitting nonlinear regression (dose response - variable slope) using GraphPad Prism software.

[1] = target: hLPAR1 (human lysophosphatidic acid receptor 1, Accession No.: NM_001401.4) (Homo sapiens, UniProt Q92633); assay: cell-based; settings: FLIPR method, CHO-K1 cells overexpressing hLPAR1
Method in brief: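 Antagonist mode in CHO-K1 cells stably expressing hLPAR1, Fluo-4 loaded; compound preincubated 30 min at room temperature before 1 µM oleoyl-LPA (final) challenge.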

[2] = Pharmacokinetic study in rats (oral gavage and tail vein injection, plasma LC-MS/MS); format: in vivo; settings: rat; for Cmax: read-out: Cmax
Procedure: Male SPF-grade SD rats (Beijing Vital River Laboratory Animal Technology Co., Ltd.) with a body weight range of 200 to 250 g were used. After acclimatization, the rats were administered a clear solution of the compound of the present disclosure via oral gavage (Po, fasted overnight before administration with free access to water, food returned 4 hours after administration) and tail vein injection (Iv, free access to food and water throughout the administration). Blood samples were collected from the orbital venous plexus/jugular vein of rats at specified time points after administration (blood collection time points for the PO group: 0.167, 0.5, 1, 2, 4, 6, 8, and 24 h; for the IV group: 0.033, 0.167, 1, 2, 4, 6, 8, and 24 h). The concentration of compounds in plasma was detected by LC-MS/MS (AB SCIEX Qtrap4500). Data were analyzed using WinNonlin (version 5.2.1 Pharsight, Mountain View, CA) with a non-compartmental model to obtain PK parameters (including Cmax, C0, Tmax, AUClast, AUCinf, T1/2, etc.).
Table 3: Results of in vivo pharmacokinetic studies of compounds of the present disclosure in rats
The vehicle for the Po group compound was 5% DMSO + 5% ethanol + 60% PEG400 + 30% normal saline; the vehicle for the Iv group compound was 10% ethanol + 20% pure water + 70% PEG400 solution.

[3] = Table 1, read-out: LPAR1 inhibitory activity IC50

T1 sequence (Q92633 whole entry): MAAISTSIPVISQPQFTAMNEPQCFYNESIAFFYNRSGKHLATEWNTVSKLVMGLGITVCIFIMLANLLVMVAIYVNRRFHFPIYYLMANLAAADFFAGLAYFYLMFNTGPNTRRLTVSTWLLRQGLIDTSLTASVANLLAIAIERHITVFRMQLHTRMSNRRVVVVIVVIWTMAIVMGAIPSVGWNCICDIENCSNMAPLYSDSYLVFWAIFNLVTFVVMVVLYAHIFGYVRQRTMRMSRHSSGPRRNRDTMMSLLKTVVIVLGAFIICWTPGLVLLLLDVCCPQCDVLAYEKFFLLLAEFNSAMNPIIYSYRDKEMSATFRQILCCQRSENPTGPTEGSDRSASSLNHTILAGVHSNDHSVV
Chain of hLPAR1 (human lysophosphatidic acid receptor 1, Accession No.: NM_001401.4) (Q92633 whole entry): as above

SMILES: CCCCN(C)C(=O)OCc1c(-c2ccc(C#CC3(CC(=O)O)CC(OCC)C3)c(C)n2)nnn1C (stereo not drawn) [compound 114]
IC50 (LPAR1 receptor): 0.0092 µM

SMILES: CCc1nc(-c2nnn(C)c2NC(=O)O[C@H](C)C(F)(F)CC)ccc1C#CC1(CC(=O)O)CC1 [compound 233]
IC50 (LPAR1 receptor): 0.163 µM

SMILES: CCC(F)(F)[C@@H](C)OC(=O)Nc1c(-c2ccc(C#CC3(CC(=O)O)CC4(CC4)C3)c(C)n2)nnn1C [compound 449]
IC50 (LPAR1 receptor): 0.0056 µM

SMILES: COC1CC(C#Cc2ccc(-c3nnn(C)c3NC(=O)O[C@H](C)c3ccccc3)nc2C)(CC(=O)O)C1 (stereo partly drawn) [compound 464]
IC50 (LPAR1 receptor): 0.0236 µM

SMILES: CCC(F)(F)CC(C)OC(=O)Nc1c(-c2ccc(C#CC3CCC3C(=O)O)c(C)n2)nnn1C (single isomer, unassigned) [245-B]
IC50 [1, 3]: 0.0346 µM | AUC(0-t) ([2]; SD rats, Iv, 1 mg/kg): 3 to 5 µg·h/mL | half-life ([2]; SD rats, Iv, 1 mg/kg): 7.22 h | Cmax ([2]; SD rats, Iv, 1 mg/kg): 0.8 to 5 µg/mL | AUC(0-t) ([2]; SD rats, Po, 1 mg/kg): 3 to 5 µg·h/mL | half-life ([2]; SD rats, Po, 1 mg/kg): 6.66 h | Cmax ([2]; SD rats, Po, 1 mg/kg): 0.2 to 0.8 µg/mL

SMILES: CCCCN(C)C(=O)OCc1c(-c2ccc(C#CC3(CC(=O)O)CC3)c(F)n2)nnn1C [compound 105]
IC50 ([1]; LPAR1 inhibitory activity IC50, Table 1): 0.0562 µM | AUC(0-t) ([2]; SD rats, Iv, 1 mg/kg): 1.2 to 3 µg·h/mL | half-life ([2]; SD rats, Iv, 1 mg/kg): 4.72 h | Cmax ([2]; SD rats, Iv, 1 mg/kg): 0.8 to 5 µg/mL | AUC(0-t) ([2]; SD rats, Po, 1 mg/kg): 1.2 to 3 µg·h/mL | half-life ([2]; SD rats, Po, 1 mg/kg): 6.6 h | Cmax ([2]; SD rats, Po, 1 mg/kg): 0.2 to 0.8 µg/mL

SMILES: CC(OC(=O)Nc1c(-c2ccc(C#CC3(CC(=O)O)CC3)c(F)n2)nnn1C)C12CC(C1)C2 (stereo not drawn) [237-A, 2-(1-((6-(5-(((1-(bicyclo[1.1.1]pentan-1-yl)ethoxy)carbonyl)amino)-1-methyl-1H-1,2,3-triazol-4-yl)-2-fluoropyridin-3-yl)ethynyl)cyclopropyl)acetic acid]
IC50 [1, 3]: 0.0344 µM | half-life ([2]; male, SD, iv, 1 mg/kg): 5.19 h | half-life ([2]; male, SD, po, 1 mg/kg): 4 h | AUC(0-t) ([2]; male, SD rats, Iv, 1 mg/kg): 5 to 10 µg·h/mL | Cmax ([2]; male, SD rats, Iv, 1 mg/kg): 5 to 8 µg/mL | AUC(0-t) ([2]; male, SD rats, Po, 1 mg/kg): 5 to 10 µg·h/mL | Cmax ([2]; male, SD rats, Po, 1 mg/kg): 0.8 to 5 µg/mL

Other lines, results leading:

IC50 (LPAR1 receptor): 0.0072 µM
SMILES: C[C@H](CC(C)(F)F)OC(=O)Nc1c(-c2ccc(C#CC3(CC(=O)O)CC4(CC4)C3)c(Cl)n2)nnn1C [compound 502]

IC50 (LPAR1 receptor): 0.0441 µM
SMILES: CCC(F)(F)[C@@H](C)OC(=O)Nc1c(-c2ccc(C#CC3(CC(=O)O)CC3)c(C(F)(F)F)n2)nnn1C [compound 208, (R)-2-(1-((6-(5-((((3,3-difluoropentan-2-yl)oxy)carbonyl)amino)-1-methyl-1H-1,2,3-triazol-4-yl)-2-(trifluoromethyl)pyridin-3-yl)ethynyl)cyclopropyl)acetic acid]

IC50 (LPAR1 receptor): 0.0722 µM
SMILES: Cc1nc(-c2nnn(C)c2NC(=O)O[C@H](C)CC2CC2)ccc1C#C[C@@H]1CC[C@H]1C(=O)O [compound 248]

IC50 (LPAR1 receptor): 0.0045 µM
SMILES: CCc1nc(-c2nnn(C)c2NC(=O)O[C@H](C)CC(C)(F)F)ccc1C#CC1(CC(=O)O)CC2(CC2)C1 [compound 500]

IC50 (LPAR1 receptor): 0.0632 µM
SMILES: CCOC1CC(C#Cc2ccc(-c3nnn(C)c3NC(=O)O[C@H](C)CC(C)(F)F)nc2C)(CC(=O)O)C1 (stereo partly drawn) [compound 430]

IC50 (LPAR1 receptor): 0.134 µM
SMILES: CCC[C@@H](C)OC(=O)Nc1c(-c2ccc(C#C[C@@H]3CC(F)(F)C[C@H]3C(=O)O)c(C)n2)nnn1C [compound 304]

IC50 (LPAR1 receptor): 0.0068 µM
SMILES: Cc1nc(-c2nnn(C)c2NC(=O)O[C@H](C)CC(C)(F)F)ccc1C#CC1(CC(=O)O)CC2(CC2)C1 [compound 448]

IC50 [1, 3]: 0.0723 µM | half-life ([2]; male, SD, iv, 1 mg/kg): 4.06 h | half-life ([2]; male, SD, po, 3 mg/kg): 3.45 h | AUC(0-t) ([2]; male, SD rats, Iv, 1 mg/kg): 1.2 to 3 µg·h/mL | Cmax ([2]; male, SD rats, Iv, 1 mg/kg): 5 to 8 µg/mL | AUC(0-t) ([2]; male, SD rats, Po, 3 mg/kg): 5 to 10 µg·h/mL | Cmax ([2]; male, SD rats, Po, 3 mg/kg): 0.8 to 5 µg/mL
SMILES: Cc1nc(-c2nnn(C)c2CNC(=O)OCCC(C)C)ccc1C#CC1(CC(=O)O)CC1 [compound 253]

IC50 [1, 3]: 0.0503 µM | half-life ([2]; male, SD, iv, 1 mg/kg): 12.1 h | half-life ([2]; male, SD, po, 1 mg/kg): 5.73 h | AUC(0-t) ([2]; male, SD rats, Iv, 1 mg/kg): 3 to 5 µg·h/mL | Cmax ([2]; male, SD rats, Iv, 1 mg/kg): 0.8 to 5 µg/mL | AUC(0-t) ([2]; male, SD rats, Po, 1 mg/kg): 5 to 10 µg·h/mL | Cmax ([2]; male, SD rats, Po, 1 mg/kg): 0.8 to 5 µg/mL
SMILES: Cc1nc(-c2nnn(C)c2NC(=O)O[C@H](C)CC(C)(F)F)ccc1C#CC1(CC(=O)O)CCC1 [compound 324]

IC50 [1, 3]: 0.0249 µM | half-life ([2]; male, SD, iv, 1 mg/kg): 6.18 h | half-life ([2]; male, SD, po, 1 mg/kg): 6.08 h | AUC(0-t) ([2]; male, SD rats, Iv, 1 mg/kg): 5 to 10 µg·h/mL | Cmax ([2]; male, SD rats, Iv, 1 mg/kg): 0.8 to 5 µg/mL | AUC(0-t) ([2]; male, SD rats, Po, 1 mg/kg): 3 to 5 µg·h/mL | Cmax ([2]; male, SD rats, Po, 1 mg/kg): 0.2 to 0.8 µg/mL
SMILES: C[C@H](CC(C)(F)F)OC(=O)Nc1c(-c2ccc(C#CC3(CC(=O)O)CC3)c(Cl)n2)nnn1C [compound 210, (R)-2-(1-((2-chloro-6-(5-((((4,4-difluoropentan-2-yl)oxy)carbonyl)amino)-1-methyl-1H-1,2,3-triazol-4-yl)pyridin-3-yl)ethynyl)cyclopropyl)acetic acid]

IC50 [1, 3]: 0.0639 µM | half-life ([2]; male, SD, iv, 1 mg/kg): 7.04 h | half-life ([2]; male, SD, po, 1 mg/kg): 5.13 h | AUC(0-t) ([2]; male, SD rats, Iv, 1 mg/kg): 3 to 5 µg·h/mL | Cmax ([2]; male, SD rats, Iv, 1 mg/kg): 5 to 8 µg/mL | AUC(0-t) ([2]; male, SD rats, Po, 1 mg/kg): 3 to 5 µg·h/mL | Cmax ([2]; male, SD rats, Po, 1 mg/kg): 0.2 to 0.8 µg/mL
SMILES: Cc1nc(-c2nnn(C)c2CNc2nccc(C3CC(F)(F)C3)n2)ccc1C#CC1(CC(=O)O)CC1 [compound 254]
